How the values were obtained:
3′UTR/Bim plasmid = test: Luciferase 3'UTR reporter assay; type: cell-based, human; details: A172
Procedure: Cells were seeded in 24-well plates and were transfected with the indicated firefly luciferase constructs together with an SV40-renilla control vector. Lysates were prepared at […], and luciferase activity was measured using the Dual Luciferase Reporter Assay system (Promega, France) and a luminometer (MicroLumat Plus, EG&G Berthold, France).

Bim = Bim expression (in-cell ELISA, RT-qPCR) in A172 cells; type: cell-based, human
Procedure: In cell ELISA were performed using the Bim Colorimetric Cell-Based ELISA kit (Aviva Systems Biology, France) according to the manufacturer's instructions. Briefly, 5 000 cells were seeded in 96-well plate to be exposed or not to indicated exosome or miRNA. After that, cells were treated with a fixing solution (4% of paraformaldehyde solution) for 10 min at room temperature. Primary antibody was incubated overnight at 4° C. Adequate HRP-conjugated secondary antibodies were incubated for 1 hour at room temperature. Detection was performed at 450 nm.
After washes, cells in each well were incubated with crystal violet solution for 5 min at room temperature, according to the manufacturer's instructions. Absorbance was read at 595 nm, and used to normalize the “Bim signal”.
RNA extract is performed using RNeasy Mini QIAcube Kit and QIAcube (Qiagen, France). RT-qPCRs are performed using QuantiTect Reverse Transcription Kit, Rotor-Gene SYBR Green PCR Kit, QuantiTect Primer Assays and Rotor-Gene Q as real-time thermocycler (Qiagen, France). Reference gene RPLPO was used, with the 2-ΔΔCt relative quantification method.

[1] = tested on: A549 (a lung cancer cell line); test: Chemotherapy-induced cell death, PARP and Caspase-3 cleavage in A549; type: cell-based, human; details: A549 exposed to Exo/αPD1; CIS 5 μM, ABT263 15 μM
Procedure: Colorimetric Cell Cytotoxicity Assay Kit (Abcam, France) was used to estimate the cell viability. Briefly, cells were seeded in 96-well plate. After the realization of manufacturer's instruction, absorbance was read at 570 and 605 nm using Victor™x3 spectrophotometer (Perkin-Elmer, France).
Levels of cleaved caspase-3 and cleaved PARP are considered as both biomarkers of apoptosis. The measurement of these two parameters was performed using the Human Cleaved PARP1 and Human Cleaved Caspase-3 ELISA Kits (Abcam, France) according to the manufacturer's protocol.
In view of the data described above, associating the ineffectiveness of cisplatin+αPD1 therapy with exomiR-4315-induced Bim down-expression, we then studied the effect of a “Bim/BH3 mimetic drug” such as ABT263 on the resistance to cisplatin of A549 cells exposed to Exo/αPD1. A549 lung cancer cells were then exposed to Exo/αPD1 and Exo prior to the addition of cisplatin (CIS, 5 μM) and/or ABT263 (15 μM). ABT263 abrogated the Exo/αPD1-induced resistance to CIS (FIG. 4A).

A549-induced tumors = test: A549-inoculated xenograft mice, tumor volume; type: in vivo
Procedure: The experimental procedures using animals were in accordance with Institutional Animal Care guidelines and the French National Committee of Ethics. In addition, all experiments were conducted according to the Regulations for Animal Experimentation at the “Plate-forme […] the “Institut de Recherche en Santé de l'Université de Nantes (IRS-15N)” and approved by the French National Committee of Ethics. Cultured A549 cells were harvested by trypsinization, washed and resuspended in saline buffer. Cell suspensions were injected subcutaneously (s.c.) into the flanks of 7-/8-week-old mice (Janvier, France). Tumor volume based on caliper measurements was calculated using the modified ellipsoidal formula (Tumor volume=1⁄2(length×width2)).

Compound: 5′CCGCUUUCUGAGCUGGAC (miScript mimic, further chemistry not given here) [mimic miR-4315, Syn-hsa-miR-4315 miScript miRNA Mimic]
- luciferase activity associated with the 3′UTR/Bim plasmid (3′UTR/Bim plasmid): decreased
- Bim expression (protein and mRNA levels) (Bim): down-regulated

Compound: CC1(C)CCC(c2ccc(Cl)cc2)=C(CN2CCN(c3ccc(C(=O)NS(=O)(=O)c4ccc(N[C@H](CCN5CCOCC5)CSc5ccccc5)c(S(=O)(=O)C(F)(F)F)c4)cc3)CC2)C1 [ABT263, navitoclax]
- Exo/αPD1-induced resistance to CIS [1]: abrogated
- deleterious effect of Exo/αPD1 on the CIS-resistance of cancer cells (A549-induced tumors; A549 xenograft mice): suppressed

Compound: N.N.[Cl][Pt][Cl] [CIS, cisplatin]
- volume of A549-induced tumors (A549-induced tumors; xenograft mice): decreased

Source: patent US12595517B2, “Method to treat and stratify a patient suffering from a cancer” (INSERM (INSTITUT NATIONAL DE LA SANTÉ ET DE LA RECHERCHE …, priority 2020, dated 2026)
